According to patent US10246489B2, “Peptide inhibitors of calcium oxalate monohydrate crystallization and uses thereof” (UNIVERSITY OF HOUSTON, priority 2013, dated 2019):
“Also recorded” adds a separate entry of the source.

Columns and labels:
[1] = In situ calcium ion-selective electrode (ISE) measurement of COM crystallization; conditions: 20 μg/ml additive; supersaturated calcium oxalate S=5.4, stirred; ISE slope in first 40 min vs control
Experimental: The COM growth rate was measured as the slope (dCa/dt) of decreasing Ca^2+ concentration within the first 40 min of crystallization. […] The percent reduction in COM growth rate was calculated by comparing the ISE slopes of peptides and control using the formula, Percent Reduction=[1−(dCa/dt)peptide/(dCa/dt)control]×100%. Data are averages of 2 or 3 measurements (error bars equal two standard deviations);
COM crystals for bulk crystallization studies were synthesized using a reported procedure that produces micron-sized crystals with large basal (100) surfaces. COM crystals prepared with molar composition 0.7 mM CaCl2: 0.7 mM Na2C2O4: 150 mM NaCl are referred to as the control. Growth solutions prepared with peptides used 20 μg/ml of the additive (unless otherwise stated).
As such, measurements reported herein were conducted at a single peptide concentration (20 μg/ml) to assess COM growth inhibition. To facilitate comparison of peptides in Table 1, Applicants calculated the percent reduction in COM growth rate using the relative difference in ISE slopes (units of ppm Ca^2+ per time) for peptide and control samples during the first 40 min of crystallization.
The slope of ISE curves (FIG. 2A) is the temporal change in free Ca^2+ concentration due to COM nucleation (primary and secondary) and crystal growth. Deconvoluting these two processes (nucleation and growth) from ISE data is nontrivial, particularly if one wishes to extract detailed kinetic information of COM growth rates. […] In the current study, the distinct advantage of ISE compared to more traditional approaches is its ease of use and the rapid time for data acquisition that enables high-throughput analysis of large peptide libraries.
A quantitative comparison of peptide efficacy for inhibiting COM crystallization was performed using in situ ISE measurements. The percent inhibition in COM growth rate was calculated using the relative difference in ISE slopes in the presence of 20 μg/mL peptide. […] The effect of Asp with Glu in peptide sequences was measured on COM growth inhibition (Table 2).

[2] = Wang et al. [11]; similar citrate concentration, lower supersaturation S=1.3; cited from earlier work
[3] = Kinetic studies of COM growth at 60° C. using the calcium assay over 24 hours; conditions: 20 μg/mL peptide, 24-hour period
Experimental: A second library of peptides containing glutamic acid (E) and alanine (A) amino acids was synthesized. The sequences of E-peptides shown in Table 2 were used in bulk crystallization studies and kinetic studies to assess their role as growth inhibitors or promoters of COM crystallization. […] These analyses were performed using the calcium assay to track the kinetics of crystallization over a 24-hour period. The calcium ion concentration in the supernatant solution was assessed at periodic times.
(§1) Free calcium concentration in the crystallization solution was measured by a colorimetric assay using Quantichrome DICA 500 Calcium assay kit (BioAssay Systems, Hayward, Calif.). Standard solutions (0, 0.1, 0.2, 0.3, 0.4, 0.5, and 1 mM) were prepared using calcium solutions provided with the kit. Detection reagent was prepared by mixing equal volumes of reagent A and reagent B according to manufacturer's instructions. A 10 μL sample was withdrawn from the top of each crystallization well without disturbing the bottom and dispensed into a 96-well microplate. 100 μL of detection reagent was added to each well and incubated for 3 minutes at room temperature. The absorbance was measured at 612 nm using Biotek Synergy H4 microplate reader (BioTek, Winooski, Vt.). Calcium concentration was determined using a calibration curve prepared from standard calcium solutions.

[4] = Bulk crystallization studies of COM crystal size and habit (optical microscopy, SEM, AFM)
Experimental: FIGS. 4A-4B show macroscopic characterization of COM crystals from bulk crystallization in solutions of 0.5 mM CaC2O4 and 20 μg/ml peptide. Optical microscopy was used to measure: Percent distribution of elongated hexagonal platelet (shaded bars) and diamond platelet (pattern bars) crystal morphologies (FIG. 4A); and length of the COM (100) basal surface measured along the direction (i.e. apical tip-to-tip distance) for hexagonal and diamond morphologies (FIG. 4B). Data in (FIG. 4A) and (FIG. 4B) are the average of three separate crystallization experiments performed at 60° C. for 3 days (error bars equal one standard deviation). Data for peptide D4 (diamond habit) was omitted based on too few crystals for statistical analysis;
COM crystals for bulk crystallization studies were synthesized using a reported procedure that produces micron-sized crystals with large basal (100) surfaces. COM crystals prepared with molar composition 0.7 mM CaCl2: 0.7 mM Na2C2O4: 150 mM NaCl are referred to as the control. Growth solutions prepared with peptides used 20 μg/ml of the additive (unless otherwise stated). The crystals were characterized by optical microscopy using a Leica DM2500-M microscope, scanning electron microscope (SEM) using a FEI 235 Dual-Beam Focused Ion-beam instrument, atomic force microscopy (AFM) using an Asylum MFP-3D-SA instrument (Santa Barbara, Calif.), and a calcium ion-selective electrode (ISE, ThermoScientific).
ISE measurements can be used to screen peptide efficacy, but provide little information regarding the specificity of peptide binding to different surfaces of COM crystals. To this end, Applicants used a second analysis step to identify the effect of peptides on COM crystal size and habit. The influence of the peptide library on macroscopic properties of COM crystals was assessed using bulk crystallization studies and optical and scanning electron microscopy to characterize COM crystals grown in the presence of peptides. In vitro, COM crystallization yields elongated hexagonal platelets with {100} basal surfaces bounded by {010} and crystallographically equivalent {121} apical surfaces (FIG. 3A). […] Applicants observed that multiple peptides in the library reduced growth along the directions, which decreased the crystal aspect ratio (length-to-width) and shifted the morphology from hexagonal to diamond platelets. This change in crystal habit can be attributed to the preferential binding of peptides to COM {121} surfaces, which slows growth along the naturally fast growth directions within the (100) plane.
To more systematically assess the surface topography of COM crystals, Applicants used atomic force microscopy (AFM) to probe the effect of peptides on COM (100) surface roughness. Crystals extracted from control and peptide D5 batches were prepared on AFM sample disks and imaged in air. The RMS roughness for (100) surfaces of hexagonal-shaped crystals from the control and test peptide D5 were approximately 1.0 and 4.3 nm, respectively.
Crystal batches prepared in bulk studies were analyzed using optical microscopy to quantify changes in COM crystal size and aspect ratio. […] Although there were clear differences in the percent population of diamond-shaped crystals among peptides tested in this study, Applicants observed that the size of diamond crystals were generally the same, irrespective of peptide sequence (FIG. 4B). The majority of COM hexagonal platelets in peptide samples had similar size and aspect ratio as the control (here Applicants only report the length of COM crystals in FIG. 4B). A notable exception, however, was peptide D4, which produced a 22% increase in the length-to-width aspect ratio of COM hexagonal crystals, and an increase in the length from 35 μm (control) to 75 μm (peptide D4).

[5] = High-throughput colorimetric calcium depletion assay (crystallization half-time); conditions: 37° C., crystallization volume 600 μL, shaking; logistic fit
Experimental: as §1
Time course of depletion of free calcium in the crystallization solution, normalized to the initial concentration, was fitted to a nonlinear logistic function using OriginPro Software (Origin Lab, Northhampton, Mass.). The logistic function relating calcium concentration to time is given by
where [Ca]t is the normalized calcium concentration at time t, A1 is the normalized initial supersaturation concentration (i.e at t=0), A2 is the normalized equilibrium concentration (i.e. at t=∞), p is the hill coefficient which represents slope of the curve at midpoint, and t1/2 is the crystallization half-time (CHT), defined as the time at which crystallization is 50% complete (i.e. [Ca]t1/2=[…]). A1 was fixed at 1, and A2, p and t1/2 were obtained from fitting the data to equation 1. CHT was used as a measure of inhibition potentials of the peptides. A one-way ANOVA in combination with Tukey post hoc test at p<0.05 level was used to probe statistical significance. Applicants' studied the effects of experimental parameters including volume, shaking and temperature on crystallization in designing a high-throughput screening assay. Applicants have shown the logistic model effectively represents the three phases: induction, crystal growth and equilibrium observed in our setup, and CHT (t1/2) can be used as a measure of efficacy of potential crystal growth modifiers. The peptide library screened comprised of Asp and Ala residues (peptides D1-D13) at optimized assay conditions of 37° C., crystallization volume of 600 μL in a shaking environment. […] The high throughput of the assay provides the opportunity to assess the growth modulation potential of crystal growth modifiers at varying modifier concentrations, supersaturations and ionic strengths with relative ease. […] Finally, the assay can be translated to other crystallization systems in a relatively straightforward fashion for rational design and discovery of growth modifiers for specific applications.

Compound: O=C(O)CC(O)(CC(=O)O)C(=O)O [citrate, reference compound]
- percent reduction in COM growth rate [1]: 28±6%
- reduction in COM growth rate [2]: 48%

Compound: A-E-A-E-A-E-A-E-A-E-A-E-A-E-A-E-A-E (AEAEAEAEAEAEAEAEAE; Synthesized Calcium oxalate monohydrate inhibitory polypeptide) [E10]
- inhibition of COM crystal growth (calcium in supernatant over time) [3]: inhibition of COM crystal growth; also recorded: more effective inhibitor than E11

Compound: ADAADDAADAADDAAAAA (Synthesized Calcium oxalate monohydrate inhibitory polypeptide) [D5]
- percent reduction in COM growth rate [1]: 30%
- percentage of diamond-shaped crystals in total crystal population ([4]; 20 μg/ml peptide, 60° C. for 3 days, optical microscopy, average of three experiments): largest populations of diamond-shaped crystals
- RMS roughness of diamond-shaped crystals ([4]; AFM imaged in air): 3.2 nm
- RMS roughness of (100) surfaces of hexagonal-shaped crystals ([4]; AFM imaged in air, control approximately 1.0 nm): ~4.3 nm
- CHT (hr), crystallization half-time [5]: 4.641 h

Compound: E-E-E-E-E-E-E-E-E-E-E-E-E-E-E-E-E-E (EEEEEEEEEEEEEEEEEE; Synthesized Calcium oxalate monohydrate inhibitory polypeptide) [E11]
- inhibition of COM crystal growth (calcium in supernatant over time) [3]: inhibition of COM crystal growth
